Results: patent US5190924A, “Peptide amides and amide dimers useful as muscle relaxants” (BOC Health Care, Inc., priority 1991, dated 1993)
Read-outs that look alike come from different tables or passages of the source.

How the values were obtained:
[1] = system: neuromuscular junction; assay type: in vivo; settings: for ED90 (potency: dose required to depress twitch tension to 10% of control): Table II, anesthetized rabbits, marginal ear vein; for Duration (time from injection until train-of-four recovered to 75%) / HR (% change from pre-drug heart rate) / onset T85% (time from injection until 85% of maximal drug effect) / BP (% change of pre-drug blood pressure): rabbit; for Neuromuscular Junction Blocking Activity (ED90), Rabbit: Table I, rabbit paw twitch
From the text: In a large series of similar telaxants, the rabbit dose is typically 125% of that in mice. The mechanism of action was also confirmed in this test by observing train-of-four and tetanus fade, post-tetanic potentiation of single twitches and administration of the anticholinesterase drug neostig- mine which reverses the relaxation. Reversibility, rapid onset and short duration are important factors to the anesthesiologist.
The following is a brief description of the methodologies used in rabbits to describe neuromuscular blocking activity of the subject compounds. A more detailed description of these methods is presented in "Microcomputer Use in Measuring Onset, Duration, and Recovery from Non-Depolarizing Skeletal Muscle Relaxants in Rabbits", P. D. Thut et al, Drug development Research 5:182, 1985.
Male New Zealand white rabbits weighing between 2.5 and 3.4 kg were anesthetized with pentobarbital (30 mg/kg) and placed on their backs upon a 40° C. water filled temperature regulation pad. Following tracheostomy, the lungs were mechanically ventilated at 28 breaths per minute with room air, using an open system delivering 200 mi/stroke. This ventilation maintained pCO2 at 38 mmHG and pO2 at 85 mmHg. Direct arterial blood pressure was measured from the right common carotid artery. The test compounds were administered through a canula placed in the marginal ear vein. Each foreleg was taped to a cushioned plate held in a femur clamp attached to the spinal board rack. The left centeral digit of each paw was connected to a force displacement transducer for measurement of muscle tension. Nerve stimulation was provided by pairs of pin electrodes placed on both sides of the ulnar nerve at the elbow of both forearms. The right ulnar nerve was stimulated at […] for 0.5 msec duration. The left ulnar nerve was similarly stimulated, every 15 seconds, with addition of interspersed trains-of-four and tetanizing stimuli. The parameters reported in Table II are: potency (ED90), which is the dose required to depress twitch tension to 10% of its control value; onset (T85%), which is the time from injection unit 85% of the maximal drug effect is achieved, duration, which is the time from injection until the train-of-four has recovered to 75%, blood pressure (BP), which is the percentage change of pre-drug blood pressure; and heart rate (HR), which is the percentage change from pre-drug heart rate.

[2] = system: neuromuscular junction; assay: Mouse inclined screen grip strength test; assay type: in vivo; settings: mice on 45° inclined screen; dose required to inhibit grip strength
Method: The first step, in mice, establishes a preliminary estimate of the potency and efficacy of the compounds. The animals were placed on a screen, inclined 45° to the horizontal. Effective doses caused the mice to lose their grip and slide down the inclined screen. […]

[3] = equi-efficacious dose, arterial blood pressure

| Compound | ED90 (potency: dose required to depress twitch tension to 10% of control) [1] | Duration (time from injection until train-of-four recovered to 75%) ([1]; equi-efficacious dose) | HR (% change from pre-drug heart rate) ([1]; equi-efficacious dose) | onset T85% (time from injection until 85% of maximal drug effect) ([1]; equi-efficacious dose) | BP (% change of pre-drug blood pressure) [1, 3] | Neuromuscular Junction Blocking Activity (ED90), Mouse [2] | Neuromuscular Junction Blocking Activity (ED90), Rabbit [1] | BP (% change of pre-drug blood pressure) ([1]; in vivo) | HR (% change from pre-drug heart rate) ([1]; in vivo) |
| --- | --- | --- | --- | --- | --- | --- | --- | --- | --- |
| CC(=O)O[C@H]1C[C@@H]2CC[C@@H]3[C@H](CC[C@@]4(C)[C@H]3C[C@H]([N+]3(C)CCCCC3)[C@@H]4OC(C)=O)[C@@]2(C)C[C@@H]1[N+]1(C)CCCCC1 [pancuronium] | 0.02 mg/kg | 32.50 min | 0.00 % change | 147.50 s | 2.70 % change |  |  |  |  |
| CC(=O)O[C@H]1C[C@@H]2CC[C@@H]3[C@H](CC[C@@]4(C)[C@H]3C[C@H]([N+]3(C)CCCCC3)[C@@H]4OC(C)=O)[C@@]2(C)C[C@@H]1N1CCCCC1 [vecuronium] | 0.02 mg/kg | 16.80 min | -1.90 % change | 97.30 s | 1.10 % change | 0.025 mg/kg | 0.020 mg/kg |  |  |
| CC(C)CC(NC(=O)C(Cc1ccccc1)NC(=O)C(CC(C)C)[N+](C)(C)C)C(=O)NCCCCCCC[N+](C)(C)C [Compound E, N,N,N-trimethyl-L-leucyl-L-phenylalanyl-L-Leucine-(7-trimethylammonium) heptylamide] |  |  |  |  |  | 1.995 mg/kg |  |  |  |
| COc1ccc(CC2c3cc(OC)c(OC)cc3CC[N+]2(C)CCC(=O)OCCCCCOC(=O)CC[N+]2(C)CCc3cc(OC)c(OC)cc3C2Cc2ccc(OC)c(OC)c2)cc1OC (stereo not drawn) [atracurium] | 0.05 mg/kg | 14.30 min |  | 126.90 s |  | 0.631 mg/kg | 0.050 mg/kg | -3.40 % change | -1.00 % change |
| C[N+](C)(C)C(Cc1ccccc1)C(=O)NCCCCCCNC(=O)C(Cc1ccccc1)[N+](C)(C)C.[I-].[I-] (stereo not drawn) [Compound A, Me3 N^+ -Phe-NH-(CH2)6 -NH-Phe-N^+ Me3 2I^-] |  |  |  |  |  | 7.940 mg/kg |  |  |  |
| C[N+](C)(C)[C@@H](Cc1ccccc1)C(=O)NCCCCCCCCCCNC(=O)[C@H](Cc1ccccc1)[N+](C)(C)C [Compound C, bis-(N,N,N-trimethyl-L-phenylalanyl) -decane-1,10-diamide] | 4.41 mg/kg | 17.4 min | -0.80 % change | 37.60 s | -40.30 % change | 1.259 mg/kg | 4.408 mg/kg |  |  |
| CC(C)CC(NC(=O)C(Cc1ccccc1)NC(=O)C(CC(C)C)[N+](C)(C)C)C(=O)NCCCCC[N+](C)(C)C.O=C([O-])C(F)(F)F.O=C([O-])C(F)(F)F (stereo not drawn) [Compound B, Me3 N^+ -Leu-Phe-Leu-NH-(CH2)5 -N^+ Me3 2(CF3 CO2)^=] |  |  |  |  |  | 3.981 mg/kg |  |  |  |
| CC(C)CC(NC(=O)C(Cc1ccccc1)[N+](C)(C)C)C(=O)NCC[N+](C)(C)C.O=C([O-])C(F)(F)F.O=C([O-])C(F)(F)F (stereo not drawn) [Compound D, Me3 N^+ -Phe-Leu-NH-(CH2)2 -N^+ Me3 2(CF3 CO2)^=] | 31.13 mg/kg | 15.00 min | 4.60 % change | 36.3 s | -28.30 % change | 16.000 mg/kg | 31.13 mg/kg |  |  |
